Laboratory results as given in patent US20210085640A1, “ACYLATED CATECHIN POLYPHENOLS AND METHODS OF THEIR USE FOR THE TREATMENT OF CANCER” (Flagship Pioneering Innovations V, Inc., priority 2018, published 2021).

Legend:
Assay type in all cases: cell-based
[1] = test system: Daudi lymphoma cancer cells; test: Cancer cell survival (CellTiter-Glo), Daudi; details: Homo sapiens, 72 h; for viability at 0.101 µM: 101 nM; for viability at 0.101 µM / viability at 0.318 µM / viability at 1 µM / viability at 3 µM / viability at 10 µM / viability at 32 µM / viability at 100 µM / viability at 316 µM / viability at 1000 µM: read-out: Cell survival at given concentration; for viability at 0.318 µM: 318 nM; for IC50: Table 4.1
In short: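 Daudi cells (4×10^3/well) were exposed for 72 h at 37 °C to nine concentrations of compound, added as 10× solutions spanning 1 μM–10 mM (fatty acids) or 100 nM–1 mM (others). CellTiter-Glo luminescence gave % survival versus untreated, medium-blank corrected; IC50 derived.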

[2] = test system: MCF7 breast cancer cells; test: Cancer cell survival (CellTiter-Glo), MCF7; details: Homo sapiens, 72 h; for viability at 0.101 µM: 101 nM; for viability at 0.101 µM / viability at 0.318 µM / viability at 1 µM / viability at 3 µM / viability at 10 µM / viability at 32 µM / viability at 100 µM / viability at 316 µM / viability at 1000 µM: read-out: Cell survival at given concentration; for viability at 0.318 µM: 318 nM
In short: (§1)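 Following overnight plating of 4×10^3 cells per well, triplicate wells received compound at nine concentrations (10× dosing stocks: fatty acids 1 μM-10 mM, all others 100 nM-1 mM). Incubation lasted 72 h at 37 C under 5% CO2. CellTiter-Glo luminescence then gave percent survival and IC50.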

[3] = test system: A549 lung cancer cells; test: Cancer cell survival (CellTiter-Glo), A549; details: Homo sapiens, 72 h; for viability at 0.101 µM: 101 nM; for viability at 0.101 µM / viability at 0.318 µM / viability at 1 µM / viability at 3 µM / viability at 10 µM / viability at 32 µM / viability at 100 µM / viability at 316 µM / viability at 1000 µM: read-out: Cell survival at given concentration; for viability at 0.318 µM: 318 nM
In short: as §1

[4] = test system: T24 bladder cancer cells; test: Cancer cell survival (CellTiter-Glo), T24; details: Homo sapiens; for viability at 0.101 µM: T-24, 101 nM; for viability at 0.101 µM / viability at 0.318 µM / viability at 1 µM / viability at 3 µM / viability at 10 µM / viability at 32 µM / viability at 100 µM / viability at 316 µM / viability at 1000 µM: 72 h, read-out: Cell survival at given concentration; for viability at 0.318 µM: T-24, 318 nM; for viability at 1 µM: T-24, 1 μM; for viability at 3 µM: T-24, 3 μM; for viability at 10 µM: T-24, 10 μM; for viability at 32 µM: T-24, 32 μM; for viability at 100 µM: T-24, 100 μM; for viability at 316 µM: T-24, 316 μM; for viability at 1000 µM: T-24, 1000 μM; for IC50: T-24, 72 h, Table 3.1, read-out: 1050
In short: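 Viability by CellTiter-Glo after 72 h compound treatment of T24 bladder cancer cells (4×10^3/well, plated the night before), nine concentration levels in triplicate. Percent survival normalised to untreated cells minus medium background, from which IC50 was determined.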

[5] = test system: HCT 116 colorectal cancer cells; test: Cancer cell survival (CellTiter-Glo), HCT 116; details: Homo sapiens, HCT 116 cells, 72 h; for viability at 0.101 µM: 101 nM; for viability at 0.101 µM / viability at 0.318 µM / viability at 1 µM / viability at 3 µM / viability at 10 µM / viability at 32 µM / viability at 100 µM / viability at 316 µM / viability at 1000 µM: read-out: Cell survival at given concentration; for viability at 0.318 µM: 318 nM; for IC50: Table 6.1
In short: as §1

[6] = test system: PC-3 prostate cancer cells; test: Cancer cell survival (CellTiter-Glo), PC-3; details: Homo sapiens, PC-3 cells, 72 h; for viability at 0.101 µM: 101 nM; for viability at 0.101 µM / viability at 0.318 µM / viability at 1 µM / viability at 3 µM / viability at 10 µM / viability at 32 µM / viability at 100 µM / viability at 316 µM / viability at 1000 µM: read-out: Cell survival at given concentration; for viability at 0.318 µM: 318 nM
In short: as §1

[7] = test system: AGS stomach cancer cells; test: Cancer cell survival (CellTiter-Glo), AGS; details: for viability at 0.101 µM / viability at 0.318 µM / viability at 1 µM / viability at 3 µM / viability at 10 µM / viability at 32 µM / viability at 100 µM / viability at 316 µM / viability at 1000 µM: 72 h; for viability at 0.101 µM: 101 nM; for viability at 0.101 µM / viability at 0.318 µM / viability at 316 µM / viability at 1000 µM: read-out: Cell survival at given concentration; for viability at 0.318 µM: 318 nM; for viability at 1 µM / viability at 3 µM / viability at 10 µM / viability at 32 µM / viability at 100 µM: Table 10.1, read-out: Cell survival at given concentration
In short: as §1

[8] = test system: A-431 skin cancer cells; test: Cancer cell survival (CellTiter-Glo), A-431; details: Homo sapiens, A-431 cells, 72 h; for viability at 0.101 µM: 101 nM; for viability at 0.101 µM / viability at 0.318 µM / viability at 1 µM / viability at 3 µM / viability at 10 µM / viability at 32 µM / viability at 100 µM / viability at 316 µM / viability at 1000 µM: read-out: Cell survival at given concentration; for viability at 0.318 µM: 318 nM; for IC50: Table 9.1
In short: as §1

Oc1cc(O)c2c(c1)O[C@H](c1cc(O)c(O)c(O)c1)[C@H](O)C2 [EGC, epigallocatechin]
viability at 0.101 µM [1]: 100% | viability at 0.318 µM [1]: 101% | viability at 1 µM [1]: 101% | viability at 3 µM [1]: 103% | viability at 10 µM [1]: 102% | viability at 32 µM [1]: 99% | viability at 100 µM [1]: 0% | viability at 316 µM [1]: 0% | viability at 1000 µM [1]: 0% | IC50 [1]: 47.5 µM | viability at 0.101 µM [2]: 93% | viability at 0.318 µM [2]: 97% | viability at 1 µM [2]: 97% | viability at 3 µM [2]: 102% | viability at 10 µM [2]: 92% | viability at 32 µM [2]: 100% | viability at 100 µM [2]: 90% | viability at 316 µM [2]: 56% | viability at 1000 µM [2]: 2% | IC50 ([2]; Table 5.1): 355 µM | viability at 0.101 µM [3]: 98% | viability at 0.318 µM [3]: 100% | viability at 1 µM [3]: 100% | viability at 3 µM [3]: 100% | viability at 10 µM [3]: 94% | viability at 32 µM [3]: 96% | viability at 100 µM [3]: 94% | viability at 316 µM [3]: 81% | viability at 1000 µM [3]: 9% | IC50 ([3]; Table 7.1): 640 µM | viability at 0.101 µM [4]: 99% | viability at 0.318 µM [4]: 103% | viability at 1 µM [4]: 103% | viability at 3 µM [4]: 101% | viability at 10 µM [4]: 100% | viability at 32 µM [4]: 84% | viability at 100 µM [4]: 0% | viability at 316 µM [4]: 0% | viability at 1000 µM [4]: 0% | IC50 [4]: 40 µM | viability at 0.101 µM [5]: 99% | viability at 0.318 µM [5]: 98% | viability at 1 µM [5]: 100% | viability at 3 µM [5]: 101% | viability at 10 µM [5]: 99% | viability at 32 µM [5]: 97% | viability at 100 µM [5]: 1% | viability at 316 µM [5]: 0% | viability at 1000 µM [5]: 0% | IC50 [5]: 50.3 µM | viability at 0.101 µM [6]: 103% | viability at 0.318 µM [6]: 99% | viability at 1 µM [6]: 100% | viability at 3 µM [6]: 101% | viability at 10 µM [6]: 102% | viability at 32 µM [6]: 98% | viability at 100 µM [6]: 96% | viability at 316 µM [6]: 96% | viability at 1000 µM [6]: 36% | IC50 ([6]; Table 8.1): 899 µM | viability at 0.101 µM [7]: 103% | viability at 0.318 µM [7]: 103% | viability at 1 µM [7]: 108% | viability at 3 µM [7]: 105% | viability at 10 µM [7]: 104% | viability at 32 µM [7]: 104% | viability at 100 µM [7]: 107% | viability at 316 µM [7]: 80% | viability at 1000 µM [7]: 8% | IC50 ([7]; Table 10.1): 477 µM | viability at 0.101 µM [8]: 103% | viability at 0.318 µM [8]: 103% | viability at 1 µM [8]: 102% | viability at 3 µM [8]: 102% | viability at 10 µM [8]: 98% | viability at 32 µM [8]: 96% | viability at 100 µM [8]: 95% | viability at 316 µM [8]: 60% | viability at 1000 µM [8]: 0% | IC50 [8]: 385 µM

O=c1cc(-c2ccc(O)cc2)oc2cc(O)cc(O)c12 [apigenin]
viability at 0.101 µM [1]: 97% | viability at 0.318 µM [1]: 96% | viability at 1 µM [1]: 101% | viability at 3 µM [1]: 101% | viability at 10 µM [1]: 103% | viability at 32 µM [1]: 86% | viability at 100 µM [1]: 60% | viability at 316 µM [1]: 47% | viability at 1000 µM [1]: 44% | IC50 [1]: 186 µM | viability at 0.101 µM [2]: 98% | viability at 0.318 µM [2]: 99% | viability at 1 µM [2]: 98% | viability at 3 µM [2]: 100% | viability at 10 µM [2]: 102% | viability at 32 µM [2]: 89% | viability at 100 µM [2]: 82% | viability at 316 µM [2]: 76% | viability at 1000 µM [2]: 73% | viability at 0.101 µM [3]: 101% | viability at 0.318 µM [3]: 102% | viability at 1 µM [3]: 102% | viability at 3 µM [3]: 98% | viability at 10 µM [3]: 102% | viability at 32 µM [3]: 100% | viability at 100 µM [3]: 82% | viability at 316 µM [3]: 67% | viability at 1000 µM [3]: 62% | viability at 0.101 µM [4]: 98% | viability at 0.318 µM [4]: 100% | viability at 1 µM [4]: 102% | viability at 3 µM [4]: 105% | viability at 10 µM [4]: 98% | viability at 32 µM [4]: 79% | viability at 100 µM [4]: 60% | viability at 316 µM [4]: 42% | viability at 1000 µM [4]: 32% | IC50 [4]: 161 µM | viability at 0.101 µM [5]: 99% | viability at 0.318 µM [5]: 100% | viability at 1 µM [5]: 100% | viability at 3 µM [5]: 99% | viability at 10 µM [5]: 98% | viability at 32 µM [5]: 60% | viability at 100 µM [5]: 32% | viability at 316 µM [5]: 19% | viability at 1000 µM [5]: 15% | IC50 [5]: 45.8 µM | viability at 0.101 µM [6]: 100% | viability at 0.318 µM [6]: 100% | viability at 1 µM [6]: 98% | viability at 3 µM [6]: 102% | viability at 10 µM [6]: 107% | viability at 32 µM [6]: 98% | viability at 100 µM [6]: 82% | viability at 316 µM [6]: 72% | viability at 1000 µM [6]: 70% | viability at 0.101 µM [7]: 99% | viability at 0.318 µM [7]: 102% | viability at 1 µM [7]: 104% | viability at 3 µM [7]: 101% | viability at 10 µM [7]: 106% | viability at 32 µM [7]: 102% | viability at 100 µM [7]: 89% | viability at 316 µM [7]: 71% | viability at 1000 µM [7]: 64% | viability at 0.101 µM [8]: 101% | viability at 0.318 µM [8]: 100% | viability at 1 µM [8]: 100% | viability at 3 µM [8]: 102% | viability at 10 µM [8]: 100% | viability at 32 µM [8]: 83% | viability at 100 µM [8]: 58% | viability at 316 µM [8]: 47% | viability at 1000 µM [8]: 45% | IC50 [8]: 178 µM
